Where two headings read alike, the source gives them in different places.
Columns and labels:
apple tree aphids = test: Field test against apple tree aphids; type: in vivo; details: for mortality at 25 µg/mL: dose 25 mg/L; for mortality at 50 µg/mL: dose 50 mg/L
Procedure: The test was carried out in the institute of pomology of CAAS orchard in June 2014, using starkrimson as the test sample, the apple tree aphids were in preliminary stage. The test method is spraying using the stretcher power sprayer (ZL-22-160), each treatment repeated 4 times. The number of initial aphids was investigated before spraying. After 2 days, 7 days, 14 days, the number of surviving aphids was investigated respectively and the control efficiency were calculated. 10% Cyantraniliprole SC was commercial available which was bought from DuPont Agricultural Chemicals Ltd., Shanghai.

army worm = test: Test against army worm (corn leaf spraying); type: in vivo; details: for Mortality (%): parallel test
Procedure: The test method is spraying. The middle part of fresh corn leaves were chosen and cut into 3 cm sects. The test compounds were sprayed on both sides of the sects by Airbrush according to the designed concentration from low to high dose. The sects were placed in 6 cm diameter Petri dish with filter paper. Ten test insects (3 instar) were introduced on each treatment after drying. Each treatment set the pure water as CK. The treated sects were placed in a certain condition. After 72 h, the number of surviving insects was investigated and the mortality rates were calculated.

cabbage aphids = test: Field test against cabbage aphids; type: in vivo
Procedure: The test was carried out in the institute of Vegetables and Flowers Chinese Academy of Agriculture Sciences Nankou base, using cabbages (JINGFENG) as the test plant. The test compounds dosage were 15 g a.i./hm^2 and 10% Cyantraniliprole SC dosage was 30 g a.i./hm^2 which were sprayed evenly to the whole plant using backpack manual sprayer (“MATABI” SUPER GREEN 16) at the spray volume of 750 L/hm^2. Each treatment repeated 4 times, arranged with randomized blocks. 5 spots were chosen from each area using diagonal method, each spot contains 2 cabbages, the 10 cabbages above were investigated in the area. The number of initial cabbage aphids was investigated before spraying. After 1 day, 3 days, 7 days, 14 days, the number of surviving aphids was investigated respectively and the control efficiency were calculated. decline ratio of insect (%)=(insect number before pesticide application−insect number after pesticide application)/(insect number before pesticide application)×100% control efficiency (%)=(treatment area decline ratio of insect−CK area decline ratio of insect)/(100−CK area decline ratio of insect)×100% Calculation Method:
10% Cyantraniliprole SC was bought from DuPont Agricultural Chemicals Ltd., Shanghai.

diamondback moth = test: Test against diamondback moth (leaf disc spraying); type: in vivo; details: for mortality at 0.156 ppm / mortality at 0.313 ppm / mortality at 0.63 ppm / mortality at 10 ppm / mortality at 100 ppm: Plutella xylostella, foliar; for mortality at 10 ppm / mortality at 100 ppm: read-out: mortality against diamondback moth; for Mortality (%): parallel test
Source text: The test method is spraying. The leaves of cabbage grown in greenhouse were chosen, removed the surface waxy layer and perforated to get 3 cm diameter leaf discs by the hole puncher. The test compounds were sprayed on both sides of the discs by Airbrush according to the designed concentration from low to high dose. The cabbage discs were placed in 6 cm diameter Petri dish with filter paper. Tentest insects (3 instar) were introduced on each treatment after drying. Each treatment set the pure water as CK. The treated discs were placed in a certain condition. After 72 h, the number of surviving insects was investigated and the mortality rates were calculated.

black bean aphid = test: Test of absorption activity (horsebean seedling, solution poured into cup); type: in vivo; details: Aphis fabae, after 48 h; for mortality at 0.625 µg/mL: 0.625 mg/L; for mortality at 2.5 µg/mL: 2.5 mg/L; for mortality at 10 µg/mL: 10 mg/L
Procedure: The 3 cm horsebean seedling that pre-infested by a certain number of black bean aphids (2 days instar) was chosen and transplanted to a paper cup loaded with fine sand. According to the test, the test compounds were treated to a solution and poured into the cup. After 48 h, the number of surviving insects was investigated and the mortality rates were calculated.

green peach aphid = test: Test against green peach aphid (spraying); type: in vivo; details: for mortality at 2.5 ppm / mortality at 5 ppm / mortality at 10 ppm / mortality at 100 ppm / mortality at 600 ppm: Myzus persicae; for mortality at 100 ppm / mortality at 600 ppm: read-out: mortality against green peach aphid; for Mortality (%): parallel test
Procedure: According to the solubility of test compounds, the compounds are dissolved in acetone or dimethyl sulfoxide, and then diluted with 0.1% aqueous solution of Tween 80 to form the test liquid 50 ml, the content of acetone or dimethyl sulfoxide in the total solution is not more than 10%.
The 6 cm diameter Petri dish with a layer of filter paper was chosen, a moderate amount of water was added to preserve moisture. A suitable piece of cabbage leaf with 30-50 green peach aphids was excised from a culture plant. Remove the winged and positive aphids, the leaf was placed to the Petri dish above with back upward. The test compounds were sprayed on both sides of the leaf by Airbrush (spray pressure: 10 psi, equate to 0.7 kg/cm^2; spray volume: 0.5 mL; spray distance: 15-20 cm). The treated Petri dishes were placed in a chamber of 23-25° C., 40%-60% relative humidity, L/D 13 h: 11 h. To keep the leaf fresh, a moderate amount of water was added to the Petri dish during the observation. After 48 h, the number of surviving insects was investigated and the mortality rates were calculated.

armyworm = details: disclosed in CN1653051A; cited from earlier work
diamond back moth = details: disclosed in CN1653051A; cited from earlier work
[1] = 72 h, read-out: mortality against army worm
[2] = 10 ppm, spraying, after 72 h, read-out: mortality against army worm
[3] = 100 ppm, spraying, after 72 h, read-out: mortality against army worm

Row | SMILES | mortality at 2.5 ppm (army worm; 72 h) [%] | mortality at 5 ppm (army worm; 72 h) [%] | mortality at 10 ppm (army worm; 72 h) [%] | mortality at 100 ppm (army worm; [1]) [%] | mortality at 0.156 ppm (diamondback moth; 72 h) [%] | mortality at 0.313 ppm (diamondback moth; 72 h) [%] | mortality at 0.63 ppm (diamondback moth; 72 h) [%] | mortality at 10 ppm (diamondback moth; 72 h) [%] | mortality at 100 ppm (diamondback moth; 72 h) [%] | mortality at 0.625 µg/mL (black bean aphid) [%] | mortality at 2.5 µg/mL (black bean aphid) [%] | mortality at 10 µg/mL (black bean aphid) [%] | mortality at 2.5 ppm (green peach aphid; 48 h) [%] | mortality at 5 ppm (green peach aphid; 48 h) [%] | mortality at 10 ppm (green peach aphid; 48 h) [%] | mortality at 100 ppm (green peach aphid; 48 h) [%] | mortality at 600 ppm (green peach aphid; 48 h) [%] | mortality at 10 ppm (army worm; [2]) [%] | mortality at 100 ppm (army worm; [3]) [%] | mortality at 10 ppm (diamondback moth; 10 ppm, spraying, after 72 h) [%] | further results
1 | CC(C)(NC(=O)c1cc(Cl)cc(Cl)c1NC(=O)c1cc(Cl)nn1-c1ncccc1Cl)C(N)=O [Compound 1.3] | 64.3 | 81.2 | 100 | ≥ 80 | 87.5 | 100 | 100 | ≥ 80 | ≥ 80 | 100 | 100 | 100 | 100 | 100 | 100 | ≥ 80 | ≥ 80 | – | – | – | mortality at 25 µg/mL (apple tree aphids; 48 h, 2 day): 78.9%; mortality at 50 µg/mL (apple tree aphids; 48 h, 2 day): 83.5%; mortality at 25 µg/mL (apple tree aphids; 168 h, 7 day): 93.5%; mortality at 50 µg/mL (apple tree aphids; 168 h, 7 day): 96.1%; mortality at 25 µg/mL (apple tree aphids; 336 h, 14 day): 93.1%; mortality at 50 µg/mL (apple tree aphids; 336 h, 14 day): 96.7%; mortality at 10 ppm (army worm; [1]): ≥ 80%; Mortality (%) (cabbage aphids; dose 15 g a.i./hm^2, 1 d): 80.78 c %; Mortality (%) (cabbage aphids; dose 15 g a.i./hm^2, 3 d): 87.22 b %; Mortality (%) (cabbage aphids; dose 15 g a.i./hm^2, 7 d): 92.57 ab %; Mortality (%) (cabbage aphids; dose 15 g a.i./hm^2, 14 d): 91.77 ab %
2 | CC(C)(NC(=O)c1cc(Cl)cc(Cl)c1NC(=O)c1cc(Br)nn1-c1ncccc1Cl)C(N)=O [Compound 1.4] | 50 | 86.6 | 92.8 | ≥ 80 | 100 | 100 | 100 | ≥ 80 | ≥ 80 | 100 | 100 | 100 | 90.1 | 100 | 100 | ≥ 80 | ≥ 80 | – | – | – | mortality at 10 ppm (army worm; [1]): ≥ 80%; Mortality (%) (cabbage aphids; dose 15 g a.i./hm^2, 1 d): 84.40 abc %; Mortality (%) (cabbage aphids; dose 15 g a.i./hm^2, 3 d): 91.03 ab %; Mortality (%) (cabbage aphids; dose 15 g a.i./hm^2, 7 d): 95.58 ab %; Mortality (%) (cabbage aphids; dose 15 g a.i./hm^2, 14 d): 91.79 ab %
3 | CC(C)(NC(=O)c1cc(F)cc(Cl)c1NC(=O)c1cc(Br)nn1-c1ncccc1Cl)C(N)=O [Compound 1.8] | – | – | – | – | – | – | – | – | – | – | – | – | – | – | – | – | – | – | – | – | Mortality (%) (army worm; 2.5 ppm, after 72 h): 43.7%; Mortality (%) (army worm; 5 ppm, after 72 h): 50.0%; Mortality (%) (army worm; 10 ppm, after 72 h): 100%; Mortality (%) (diamondback moth; 0.156 ppm, after 72 h): 52.1%; Mortality (%) (diamondback moth; 0.313 ppm, after 72 h): 75%; Mortality (%) (diamondback moth; 0.63 ppm, after 72 h): 100%; Mortality (%) (green peach aphid; 2.5 ppm, after 48 h): 89.3%; Mortality (%) (green peach aphid; 5 ppm, after 48 h): 100.0%; Mortality (%) (green peach aphid; 10 ppm, after 48 h): 100.0%
4 | CC(C)(NC(=O)c1cc(Br)cc(Br)c1NC(=O)c1cc(Br)nn1-c1ncccc1Cl)C(N)=O [Compound 1.10] | 62.5 | 87.5 | 100 | ≥ 80 | 62.5 | 81.3 | 100 | ≥ 80 | ≥ 80 | – | – | – | 100 | 100 | 100 | ≥ 80 | ≥ 80 | – | – | – | –
5 | CC1(C)N=C(c2cc(Cl)cc(Cl)c2NC(=O)c2cc(Cl)nn2-c2ncccc2Cl)NC1=O [Compound 1.20] | – | – | – | – | – | – | – | – | – | – | – | – | – | – | – | – | – | ≥ 80 | ≥ 80 | ≥ 80 | mortality at 100 ppm (diamondback moth; 100 ppm, spraying, after 72 h): ≥ 80%; mortality at 100 ppm (green peach aphid; 100 ppm, spraying, after 48 h): ≥ 80%; mortality at 600 ppm (green peach aphid; 600 ppm, spraying, after 48 h): ≥ 80%
6 | CC1(C)N=C(c2cc(Cl)cc(Cl)c2NC(=O)c2cc(Br)nn2-c2ncccc2Cl)NC1=O [Compound 1.21] | – | – | – | – | – | – | – | – | – | – | – | – | – | – | – | – | – | ≥ 80 | ≥ 80 | ≥ 80 | mortality at 100 ppm (diamondback moth; 100 ppm, spraying, after 72 h): ≥ 80%; mortality at 600 ppm (green peach aphid; 600 ppm, spraying, after 48 h): ≥ 80%
7 | CC1(C)N=C(c2cc(Br)cc(Br)c2NC(=O)c2cc(Br)nn2-c2ncccc2Cl)NC1=O [Compound 1.27] | – | – | – | – | – | – | – | – | – | – | – | – | – | – | – | – | – | ≥ 80 | ≥ 80 | ≥ 80 | mortality at 100 ppm (diamondback moth; 100 ppm, spraying, after 72 h): ≥ 80%; mortality at 100 ppm (green peach aphid; 100 ppm, spraying, after 48 h): ≥ 80%; mortality at 600 ppm (green peach aphid; 600 ppm, spraying, after 48 h): ≥ 80%
8 | CNC(=O)c1cc(C#N)cc(C)c1NC(=O)c1cc(Br)nn1-c1ncccc1Cl [Cyantraniliprole, reference compound] | – | – | – | – | – | – | – | – | – | 30 | 54.6 | 100 | – | – | – | – | – | – | – | – | –
9 | CC(NC(=O)c1cc(Br)cc(Br)c1NC(=O)c1cc(Br)nn1-c1ncccc1Cl)C(N)=O (centres unmarked) [KC1, reference compound] | 0 | 0 | 18 | – | 0 | 20 | 33.3 | – | – | – | – | – | 0 | 0 | 15.1 | – | – | – | – | – | insecticidal activity against armyworm (armyworm): high activity; insecticidal activity against diamond back moth (diamond back moth): high activity

Reference: patent US9723838B2, “Pyrazolyl amide compounds and uses thereof” (SHENYANG SINOCHEM AGROCHEMICALS R&D CO., LTD., priority 2013, dated 2017)
